# In ChEMBL document CHEMBL5038589, “Design, Synthesis, and Structure-Activity Relationship of N-Aryl-N'-(thiophen-2-yl)thiourea Derivatives as Novel and Specific Human TLR1/2 Agonists for Potential Cancer Immunotherapy” (J Med Chem, 2021):
# pEC50, pKd: −log10 of the molar value. Active and inactive are the calls of the source. The rule behind the calls is not given here.
# Molecular target: T1, Toll-like receptor 2 (Homo sapiens, UniProt O60603)
# Test: Agonist activity at TLR2 in HEK-Blue cells upto 200 uM incubated for 24 hrs by Quanti-Blue based SEAP assay
# Assay type: cell-based
# Conditions: HEK-Blue hTLR2, dose microM <=200, time 24.0 hrs
# T1 sequence (O60603 whole entry): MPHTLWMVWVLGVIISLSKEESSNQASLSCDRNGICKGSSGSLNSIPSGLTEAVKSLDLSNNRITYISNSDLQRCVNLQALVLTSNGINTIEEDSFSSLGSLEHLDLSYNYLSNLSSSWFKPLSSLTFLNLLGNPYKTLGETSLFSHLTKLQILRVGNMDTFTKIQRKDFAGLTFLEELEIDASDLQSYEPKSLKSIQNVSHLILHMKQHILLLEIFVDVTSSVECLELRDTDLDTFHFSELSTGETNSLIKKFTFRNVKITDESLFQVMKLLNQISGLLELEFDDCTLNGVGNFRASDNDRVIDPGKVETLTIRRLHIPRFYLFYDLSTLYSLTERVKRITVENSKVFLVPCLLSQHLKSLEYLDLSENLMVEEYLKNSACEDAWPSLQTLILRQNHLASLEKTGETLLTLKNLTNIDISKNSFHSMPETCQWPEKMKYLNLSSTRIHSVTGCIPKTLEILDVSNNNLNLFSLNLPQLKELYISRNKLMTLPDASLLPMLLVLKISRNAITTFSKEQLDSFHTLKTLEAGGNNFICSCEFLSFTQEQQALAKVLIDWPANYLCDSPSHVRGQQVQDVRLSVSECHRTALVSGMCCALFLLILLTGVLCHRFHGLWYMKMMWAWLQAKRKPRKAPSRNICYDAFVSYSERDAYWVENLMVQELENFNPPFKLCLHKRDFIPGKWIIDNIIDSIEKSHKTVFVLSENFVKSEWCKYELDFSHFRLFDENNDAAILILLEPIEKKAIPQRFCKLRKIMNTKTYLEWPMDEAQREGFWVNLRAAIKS
row,SMILES,Activity
1,CC(C)(C)OC(=O)c1c(NC(=S)Nc2cccc3ccccc23)sc2c1CCCC2,inactive
2,O=C(OCCc1ccccc1)c1c(NC(=S)Nc2cccc3ccccc23)sc2c1CCC2,inactive
3,O=C(O)c1c(NC(=S)Nc2cccc3ccccc23)sc2c1CCCC2,inactive
4,COC(=O)c1c(NC(=S)NCCCSC)sc2c1CCCC2,inactive
5,CCOC(=O)c1c(NC(=S)Nc2cccc3ccccc23)sc2c1CCN(C)C2,inactive
6,COC(=O)c1c(NC(=O)Nc2ccc(Cl)cc2)sc2c1CCCC2,inactive
7,CC(C)(C)OC(=O)c1c(NC(=S)Nc2cccc3ccccc23)sc2c1CCC2,inactive
8,COC(=O)c1c(NC(=S)NCCc2ccccc2)sc2c1CCCC2,inactive
9,CCOC(=O)c1c(NC(=O)Nc2ccc(Cl)c(Cl)c2)sc2c1CCCC2,inactive
10,CCCCOC(=O)c1c(NC(=S)Nc2cccc3ccccc23)sc2c1CCCC2,inactive
11,CCOC(=O)c1c(NC(=O)Nc2ccc(Cl)c(Cl)c2)sc2c1CCC2,inactive
12,COC(=O)c1c(NC(=O)Nc2ccc(C)cc2)sc2c1CCC2,inactive
13,CCOC(=O)c1c(NC(=S)NCCCSC)sc2c1CCCC2,inactive
14,CC(C)OC(=O)c1ccsc1NC(=S)Nc1cccc2ccccc12,inactive
15,CCOC(=O)c1ccsc1NC(=S)Nc1cccc2ccccc12,inactive
16,CCOC(=O)c1c(NC(=O)Nc2ccc(Cl)cc2)sc2c1CCC2,inactive
17,CCOC(=O)c1c(NC(=O)Nc2ccc(Cl)cc2)sc2c1CCCC2,inactive
18,CCOC(=O)c1c(NC(=O)Nc2cccc(Cl)c2)sc2c1CCC2,inactive
19,COC(=O)c1c(NC(=O)Nc2ccc(Cl)cc2)sc2c1CCC2,inactive
20,CC(C)OC(=O)c1c(NC(=S)Nc2cccc3ccccc23)sc2c1CCN(C)C2,inactive
21,CCOC(=O)c1c(-c2ccccc2)csc1NC(=S)Nc1cccc2ccccc12,inactive
22,CC(C)OC(=O)c1c(-c2ccccc2)csc1NC(=S)Nc1cccc2ccccc12,inactive
23,O=C(O)c1c(NC(=S)Nc2cccc3ccccc23)sc2c1CCC2,inactive

# Molecular target: T1, Toll-like receptor 2
# Test: Binding affinity to recombinant human TLR2 expressed in H5 cells by surface plasmon resonance method
# Conditions: not given
row,SMILES,pKd
1,CCOC(=O)c1c(NC(=O)Nc2ccccc2)sc2c1CCCCC2,5.05

# Molecular target: T1, Toll-like receptor 2
# Test: Agonist activity at TLR2 in HEK-Blue cells incubated for 24 hrs by Quanti-Blue based SEAP assay
# Assay type: cell-based, HEK-Blue hTLR2
# Conditions: not given
row,SMILES,pEC50
1,CCOC(=O)c1c(NC(=S)Nc2ccc(C)cc2)sc2c1CCCC2,5.06
2,CCOC(=O)c1c(NC(=S)Nc2ccc(F)cc2)sc2c1CCCC2,4.92
3,CC(C)OC(=O)c1c(NC(=S)Nc2ccc(Br)c3ccccc23)sc2c1CCC2,7.41
4,CCOC(=O)c1c(NC(=O)Nc2ccc(C)cc2)sc2c1CCCC2,4.84
5,CC(C)OC(=O)c1c(NC(=S)Nc2ccc(F)c3ccccc23)sc2c1CCCC2,7.46
6,COC(=O)c1c(NC(=S)Nc2cccc3ccccc23)sc2c1CCCC2,5.13
7,CCOC(=O)c1c(NC(=O)Nc2ccc(C)cc2)sc2c1CCC2,4.92
8,COC(=O)c1c(NC(=S)Nc2cccc3ccccc23)sc2c1CCC2,5.45
9,CCOC(=O)c1c(N=C(S)Nc2ccccc2)sc2c1CCCCC2,4.54
10,CC(C)COC(=O)c1c(NC(=S)Nc2cccc3ccccc23)sc2c1CCCC2,4.52
11,CCCOC(=O)c1c(NC(=S)Nc2cccc3ccccc23)sc2c1CCC2,6.09
12,CCOC(=O)c1c(NC(=S)Nc2ccc(-c3ccccc3)cc2)sc2c1CCC2,5.15
13,COC(=O)c1c(NC(=S)Nc2ccc(C(F)(F)F)cc2)sc2c1CCCC2,4.47
14,CCOC(=O)c1c(NC(=S)Nc2cccc3ccccc23)sc2c1CCC(C)C2 (configuration not stated),5.76
15,CCOC(=O)c1c(NC(=O)Nc2cccc3ccccc23)sc2c1CCC2,5.12
16,CCOC(=O)c1c(N=C(S)Nc2ccc(F)cc2)sc2c1CCC2,4.88
17,CCOC(=O)c1c(NC(=S)Nc2ccc(C(F)(F)F)cc2)sc2c1CCCC2,4.92
18,CCOC(=O)c1c(NC(=O)Nc2cccc3ccccc23)sc2c1CCCC2,5.23
19,CCOC(=O)c1c(NC(=S)Nc2cccc3ccccc23)sc2c1CCCCC2,5.63
20,CCOC(=O)c1c(NC(=S)Nc2ccc(Cl)cc2)sc2c1CCC2,5.60
21,CCOC(=O)c1c(NC(=O)Nc2ccccc2)sc2c1CCC2,4.92
22,CC(C)COC(=O)c1c(NC(=S)Nc2cccc3ccccc23)sc2c1CCC2,4.55
23,COC(=O)c1c(NC(=S)Nc2ccccc2)sc2c1CCCC2,4.83
24,COC(=O)c1c(NC(=S)Nc2ccccc2)sc2c1CCC2,4.85
25,CCOC(=O)c1c(NC(=O)Nc2ccccc2)sc2c1CCCCC2,4.93
26,CC(C)OC(=O)c1c(NC(=S)Nc2cccc3ccccc23)sc2c1CCCC2,6.85
27,COC(=O)c1c(NC(=S)Nc2ccc(C)cc2)sc2c1CCCC2,4.99
28,CCOC(=O)c1c(NC(=S)Nc2ccccc2)sc2c1CCC2,5.23
